How the values were obtained:
Nilaparvata lugenis = assay: Insecticidal test for Nilaparvata lugenis; assay type: in vivo; conditions: 144 h, 500 ppm active ingredient (wettable powder), 4-instar larvae on germinated rice paddy, 25° C., after 6 days, read-out: mortality rate
Experimental: The wettable powder prepared according to the above Preparation Example 2 was diluted with water to a concentration of 500 ppm as a concentration of active ingredient. After soaking the germinated rice paddy in the test solution, the paddy was transferred into a 60 ml volume of plastic cup. Ten (10) heads of 4-instar larvae of Nilaparvata lugenis were inoculated on the paddy and capped, then left at the constant temperature of 25° C. After 6 days from the inoculation, the number of surviving insects was counted, and mortality rate of the insect was calculated according to the following formula 1. mortality rate (%)=[(10−number of surviving insect in the test field)/10]×100 (1)

ddy mouse (Slc:ddy) = assay: Oral acute toxicity test; assay type: in vivo; parameters: key: 0/3 means none of 3 recipient animals died; 1/3 means one out of 3 recipient animals died; 2/3 means 2 out of 3 recipient animals died; 3/3 means all 3 recipient animals died; conditions: oral 30 mg/kg, mortality investigated for 7 days; for Test result Female (mortality, animals died out of 3): female ddy mouse; for Test result Male (mortality, animals died out of 3): male ddy mouse
Experimental: Oral acute toxicity test was conducted according to the method described in the guideline in “Guideline for the Preparation of Test Report on the Toxicity Studies”, published by the Ministry of Agriculture, Forestry and Fisheries of Japan. Experimental animals, 3 each of male and female of 7 weeks aged ddy mouse (Slc:ddy), were obtained from SLC Japan Inc. The compounds of the present invention and the reference substances were suspended in 0.5% sodium carboxymethyl cellulose or corn oil to give a 30 (mg/kg) equivalent amount for a dosage of 10 ml per 1 kg of body weight. The suspensions were inoculated using a sonde directly into the stomach of test animals which were fasted for 3 hours before inoculation. The test animals were fasted for additional 3 hours after inoculation, and the mortality of the inoculated animal was investigated for 7 days. In this table, 0/3 means none of 3 recipient animals died, 1/3 means one out of 3 recipient animals died, 2/3 means 2 out of 3 recipient animals died, 3/3 means all 3 recipient animals died.

CC(CCCCOC(=O)c1ccc(Cl)nc1)=C(F)F [Compound 1, 6,6-di-fluoro-5-methyl-5-hexenyl 6-chloronicotinate]
mortality at 500 ppm (Nilaparvata lugenis): ≥ 90%
Test result Female (mortality, animals died out of 3) (ddy mouse (Slc:ddy)): 0/3
Test result Male (mortality, animals died out of 3) (ddy mouse (Slc:ddy)): 0/3

CC(CCCCOC(=O)c1sccc1C)=C(F)F [Compound 2, 6,6-difluoro-5-methyl-5-hexenyl 3-methylthiophene-2-carboxylate]
mortality at 500 ppm (Nilaparvata lugenis): ≥ 90%

CC(CCCCOC(=O)c1cc2ccccc2s1)=C(F)F [Compound 3, 6,6-difluoro-5-methyl-5-hexenyl benzo[b]thiophene-2-carboxylate]
Test result Female (mortality, animals died out of 3) (ddy mouse (Slc:ddy)): 0/3
Test result Male (mortality, animals died out of 3) (ddy mouse (Slc:ddy)): 0/3

CC(CCCCOC(=O)c1cnc2ccccc2c1)=C(F)F [Compound 8, 6,6-difluoro-5-methyl-5-hexenyl quinoline-3-carboxylate]
mortality at 500 ppm (Nilaparvata lugenis): ≥ 90%

CC(CCCCOC(=O)c1ccco1)=C(F)F [Compound 9, 6,6-difluoro-5-methyl-5-hexenyl furan-2-carboxylate]
mortality at 500 ppm (Nilaparvata lugenis): ≥ 90%

CC(CCCCCCOC(=O)c1cc2ccccc2s1)=C(F)F [Compound 10, 8,8-difluoro-7-methyl-7-octenyl benzo[b]thiophene-2-carboxylate]
mortality at 500 ppm (Nilaparvata lugenis): ≥ 90%

CC(CCCCOC(=O)c1snnc1-c1ccccc1)=C(F)F [Compound 11, 6,6-difluoro-5-methyl-5-hexenyl 4-phenyl[1,2,3]-thiadiazole-5-carboxylate]
mortality at 500 ppm (Nilaparvata lugenis): ≥ 90%

CC(CCCCOC(=O)c1ccc2[nH]ccc2c1)=C(F)F [Compound 15, 6,6-difluoro-5-methyl-5-hexenyl 1H-indole-5-carboxylate]
mortality at 500 ppm (Nilaparvata lugenis): ≥ 90%

CC(CCOC(=O)c1cc2ccccc2s1)=C(F)F [Compound 18, 4,4-difluoro-3-methyl-3-butenyl benzo[b]thiophene-2-carboxylate]
Test result Female (mortality, animals died out of 3) (ddy mouse (Slc:ddy)): 0/3
Test result Male (mortality, animals died out of 3) (ddy mouse (Slc:ddy)): 0/3

CC(CCCCOC(=O)c1nc2ccccc2s1)=C(F)F [Compound 21, 6,6-difluoro-5-methyl-5-hexenyl benzothiazole-2-carboxylate]
mortality at 500 ppm (Nilaparvata lugenis): ≥ 90%

CC(CCCCOC(=O)c1cnsn1)=C(F)F [Compound 22, 6,6-difluoro-5-methyl-5-hexenyl [1,2,5]thiadiazole-3-carboxylate]
mortality at 500 ppm (Nilaparvata lugenis): ≥ 90%

CCn1c(C(=O)OCCCCC(C)=C(F)F)cc2ccccc21 [Compound 25, 6,6-difluoro-5-methyl-5-hexenyl 1-ethyl-1H-indole-2-carboxylate]
mortality at 500 ppm (Nilaparvata lugenis): ≥ 90%

CCc1nn(C)c(C(=O)OCCCCC(C)=C(F)F)c1Cl [Compound 26, 6,6-difluoro-5-methyl-5-hexenyl 4-chloro-5-ethyl-2-methyl-2H-pyrazole-3-carboxylate]
mortality at 500 ppm (Nilaparvata lugenis): ≥ 90%

CC(CCCCOC(=O)c1cnccn1)=C(F)F [Compound 28, 6,6-difluoro-5-methyl-5-hexenyl pyrazine-2-carboxylate]
mortality at 500 ppm (Nilaparvata lugenis): ≥ 90%

CC(CCCCOC(=O)c1sc(-c2ccccc2)nc1C)=C(F)F [Compound 29, 6,6-difluoro-5-methyl-5-hexenyl 4-methyl-2-phenyl-thiazole-5-carboxylate]
Test result Female (mortality, animals died out of 3) (ddy mouse (Slc:ddy)): 0/3
Test result Male (mortality, animals died out of 3) (ddy mouse (Slc:ddy)): 0/3

CC(CCCCOC(=O)c1cccn1C)=C(F)F [Compound 38, 6,6-difluoro-5-methyl-5-hexenyl 1-methyl-1H-pyrrole-2-carboxylate]
mortality at 500 ppm (Nilaparvata lugenis): ≥ 90%

CC(CCCCOC(=O)c1cn(C)cn1)=C(F)F [Compound 39, 6,6-difluoro-5-methyl-5-hexenyl 1-methyl-1H-imidazole-4-carboxylate]
mortality at 500 ppm (Nilaparvata lugenis): ≥ 90%

CC(=O)N1CCC(C(=O)OCCCCC(C)=C(F)F)CC1 [Compound 40, 6,6-difluoro-5-methyl-5-hexenyl 1-acetylpiperidine-4-carboxylate]
mortality at 500 ppm (Nilaparvata lugenis): ≥ 90%

CC(CCCCOC(=O)C1CCOC1)=C(F)F (stereo not shown) [Compound 41, 6,6-difluoro-5-methyl-5-hexenyl tetrahydrofuran-3-carboxylate]
mortality at 500 ppm (Nilaparvata lugenis): ≥ 90%

CC(CCCCOC(=O)c1ccc2ocnc2c1)=C(F)F [Compound 43, 6,6-difluoro-5-methyl-5-hexenyl benzoxazole-5-carboxylate]
mortality at 500 ppm (Nilaparvata lugenis): ≥ 90%

CC(CCCCOC(=O)c1noc2ccccc12)=C(F)F [Compound 44, 6,6-difluoro-5-methyl-5-hexenyl benzo[d]isoxazole-3-carboxylate]
mortality at 500 ppm (Nilaparvata lugenis): ≥ 90%

CC(CCCCOC(=O)c1nsc2ccccc12)=C(F)F [Compound 45, 6,6-difluoro-5-methyl-5-hexenyl benzo[d]isothiazole-3-carboxylate]
mortality at 500 ppm (Nilaparvata lugenis): ≥ 90%

CC(CCCCOC(=O)c1nc(C)n(-c2ccccc2)n1)=C(F)F [Compound 47, 6,6-difluoro-5-methyl-5-hexenyl 5-methyl-1-phenyl-1H-[1,2,4]triazole-3-carboxylate]
mortality at 500 ppm (Nilaparvata lugenis): ≥ 90%

CC(CCCCOC(=O)c1cc(Cl)nnc1Cl)=C(F)F [Compound 48, 6,6-difluoro-5-methyl-5-hexenyl 3,6-dichloropyridazine-4-carboxylate]
mortality at 500 ppm (Nilaparvata lugenis): ≥ 90%

CC(CCCCOC(=O)c1snc(Cl)c1Cl)=C(F)F [Compound 49, 6,6-difluoro-5-methyl-5-hexenyl 3,4-dichloroisothiazole-5-carboxylate]
mortality at 500 ppm (Nilaparvata lugenis): ≥ 90%

CCOc1oc(-c2ccccc2)nc1C(=O)OCCCCC(C)=C(F)F [Compound 50, 6,6-difluoro-5-methyl-5-hexenyl 5-ethoxy-2-phenyl-oxazole-4-carboxylate]
mortality at 500 ppm (Nilaparvata lugenis): ≥ 90%

CC(CCOC(=O)c1cnc(N(C)c2ccccc2)nc1C)=C(F)F [Compound 119, 4,4-difluoro-3-methyl-3-butenyl 4-methyl-2-(N-methyl-N-phenylamino)pyrimidine-5-carboxylate]
Test result Female (mortality, animals died out of 3) (ddy mouse (Slc:ddy)): 0/3
Test result Male (mortality, animals died out of 3) (ddy mouse (Slc:ddy)): 0/3

CC(CCCCOC(=O)c1csc(-c2ccccc2)n1)=C(F)F [Compound 129, 6,6-difluoro-5-methyl-5-hexenyl 2-phenylthiazole-4-carboxylate]
mortality at 500 ppm (Nilaparvata lugenis): ≥ 90%

CC(CCCCOC(=O)c1cnc(-c2ccccc2)s1)=C(F)F [Compound 132, 6,6-difluoro-5-methyl-5-hexenyl 2-phenylthiazole-5-carboxylate]
mortality at 500 ppm (Nilaparvata lugenis): ≥ 90%

CC(CCOC(=O)c1ncccc1C(=O)Nc1ccccc1)=C(F)F [Compound 234, 4,4-difluoro-3-methyl-3-butenyl 3-phenylcarbamoyl-pyridine-2-carboxylate]
mortality at 500 ppm (Nilaparvata lugenis): ≥ 90%

CC(CCOC(=O)c1c2c(nn1C)CCC2)=C(F)F [Compound 242, 4,4-difluoro-3-methyl-3-butenyl 2-methyl-2,4,5,6-tetrahydrocyclopentapyrazole-3-carboxylate]
mortality at 500 ppm (Nilaparvata lugenis): ≥ 90%

CCCCOc1cc(C(=O)OCCC(C)=C(F)F)nc(C)n1 [Compound 276, 4,4-difluoro-3-methyl-3-butenyl 6-butoxy-2-methyl-pyrimidine-4-carboxylate]
mortality at 500 ppm (Nilaparvata lugenis): ≥ 90%

CC(CCOC(=O)c1nc(C)cc(-c2ccccc2)n1)=C(F)F [Compound 278, 4,4-difluoro-3-methyl-3-butenyl 4-methyl-6-phenyl-pyrimidine-2-carboxylate]
mortality at 500 ppm (Nilaparvata lugenis): ≥ 90%

CC(CCOC(=O)c1cccn1CC1CC1)=C(F)F [Compound 281, 4,4-difluoro-3-methyl-3-butenyl 1-cyclopropylmethyl-1H-pyrrole-2-carboxylate]
mortality at 500 ppm (Nilaparvata lugenis): ≥ 90%

CC(CCOC(=O)c1cccn1CC#N)=C(F)F [Compound 282, 4,4-difluoro-3-methyl-3-butenyl 1-cyanomethyl-1H-pyrrole-2-carboxylate]
mortality at 500 ppm (Nilaparvata lugenis): ≥ 90%

O=C(OCCCCC=C(F)F)c1ccc(Cl)nc1 [Reference compound A, 6,6-difluoro-5-hexenyl 6-chloronicotinate, reference compound]
Test result Female (mortality, animals died out of 3) (ddy mouse (Slc:ddy)): 3/3
Test result Male (mortality, animals died out of 3) (ddy mouse (Slc:ddy)): 3/3

CCCCOc1ncc(C(=O)OCCC=C(F)F)c(C)n1 [Reference compound B, 4,4-difluoro-3-butenyl 2-butoxy-4-methylpyrimidine-5-carboxylate, reference compound]
Test result Female (mortality, animals died out of 3) (ddy mouse (Slc:ddy)): 3/3
Test result Male (mortality, animals died out of 3) (ddy mouse (Slc:ddy)): 3/3

Cc1nc(-c2ccccc2)ncc1C(=O)OCCC=C(F)F [Reference compound C, 4,4-difluoro-3-butenyl 4-methyl-2-phenylpyrimidine-5-carboxylate, reference compound]
Test result Female (mortality, animals died out of 3) (ddy mouse (Slc:ddy)): 3/3
Test result Male (mortality, animals died out of 3) (ddy mouse (Slc:ddy)): 3/3

O=C(OCCCCC=C(F)F)c1cc2ccccc2s1 [Reference compound D, 6,6-difluoro-5-hexenyl benzo[b]thiophen-2-carboxylate, reference compound]
Test result Female (mortality, animals died out of 3) (ddy mouse (Slc:ddy)): 3/3
Test result Male (mortality, animals died out of 3) (ddy mouse (Slc:ddy)): 3/3
